Results reported in paper PMC8875074, “Development of Bactericidal Peptides against Multidrug-Resistant Acinetobacter baumannii with Enhanced Stability and Low Toxicity” (International Journal of Molecular Sciences, 2022).
Converted amounts (≈) assume the structure as drawn.

Legend:
Format in all cases: cell-based, Acinetobacter baumannii
[1] = system: A. baumannii 10591; test: MIC/MBC antimicrobial assay; settings: Acinetobacter baumannii; A. baumannii 10591 wild strain; media containing 50% human serum; triplicate, two independent experiments; read-out: MBC
Procedure: Bacterial cells Acinetobacter baumannii 10591 and 14B0091 were obtained from BCRC Taiwan. All the MDR strains were obtained from the hospital as gifts. The antimicrobial assay was performed as per the standard protocol; 50 µL of 10^6 CFU/mL of mid-log phase bacterial suspension was treated with 50 µL of candidate peptide and meropenem (Sigma: PHR1772) incubated at 37 °C for 960~1200 min. The clear wells corresponding to the lowest concentrations are reported as the minimum inhibitory concentration (MIC). Suspensions from the clear wells were plated on Mueller–Hinton agar (MHA) plates and incubated at 37 °C overnight. The lowest concentration corresponding to no growth was recorded as the minimum bactericidal concentration (MBC). To detect the effect of human serum (H3667, Sigma Aldrich, St. Louis, MO, USA) on the peptides, the media was replaced with 50% human serum-containing media. Similarly, to detect the effect of lung surfactant (SURVANTA®, beractant, AbbVie Inc., Lake Bluff, IL, USA (25 mg/mL)) on the antimicrobial activity of the peptide, the normal media was replaced with 5% lung surfactant-containing media. To analyse the bacterial killing kinetics, after the addition of the peptide to the bacterial suspension, 10 µL of broth was diluted 1000 times, plated at 30 min intervals, and allowed to incubate for 90 min. The bacterial load is expressed as CFU/mL as a function of time.

[2] = system: MDR A. baumannii 1607; test: Fractional inhibitory concentration (FIC) index assay; settings: strain 1607
Procedure: (§1) A 2-fold dilution of peptide in 50 µL of media was performed along the vertical axis of a 96-well plate. Similarly, 50 µL of the next drug was diluted 2-fold along the horizontal axis. Next, 50 µL of […] was added, and the standard MIC protocol was performed. The FIC index was calculated according to the following formula:FICI = FIC A + FIC B where FIC A is MIC A & B combined/MIC A and FIC B is MIC A & B combined/[…].

[3] = system: MDR A. baumannii 1019; test: as above; settings: strain 1019
Procedure: as §1

[4] = system: MDR A. baumannii 3618; test: as above; settings: strain 3618
Procedure: as §1

[5] = system: MDR A. baumannii 14B001; test: as above; settings: strain 14B001
Procedure: as §1

[6] = system: MDR A. baumannii 921; test: as above; settings: strain 921
Procedure: as §1

[7] = system: MDR A. baumannii 1033; test: as above; settings: strain 1033
Procedure: as §1

[8] = system: MDR A. baumannii 2998; test: as above; settings: strain 2998
Procedure: as §1

[9] = system: MDR A. baumannii 2982; test: as above; settings: strain 2982
Procedure: as §1

[10] = system: MDR A. baumannii 2997; test: as above; settings: strain 2997
Procedure: as §1

[11] = system: MDR A. baumannii 1702; test: as above; settings: strain 1702
Procedure: as §1

[12] = system: MDR A. baumannii 2962; test: as above; settings: strain 2962
Procedure: as §1

[13] = system: MDR A. baumannii 2088; test: as above; settings: strain 2088
Procedure: as §1

[14] = Acinetobacter baumannii, drug alone, two experiments in triplicate

With C[C@@H](O)[C@H]1C(=O)N2C(C(=O)O)=C(S[C@@H]3CN[C@H](C(=O)N(C)C)C3)[C@H](C)[C@H]12 [Meropenem, meropenem] the MBC [1] was 1.56 µg/mL (≈ 4.07 µM), the MIC [2, 14] was 25 µg/mL and the “MIC in Combination” value ([2]; TP2-5 combined with meropenem) was 25 µg/mL. The “MIC in Combination” value ([2]; TP2-6 combined with meropenem) was 25 µg/mL, the MIC [3, 14] was 25 µg/mL and the “MIC in Combination” value ([3]; TP2-5 combined with meropenem) was 12.5 µg/mL. The “MIC in Combination” value ([3]; TP2-6 combined with meropenem) was 12.5 µg/mL, the MIC [4, 14] was 100 µg/mL and the “MIC in Combination” value ([4]; TP2-5 combined with meropenem) was 50 µg/mL. For the same molecule, the “MIC in Combination” value ([4]; TP2-6 combined with meropenem) was 25 µg/mL, the MIC [5, 14] was 400 µg/mL and the “MIC in Combination” value ([5]; TP2-5 combined with meropenem) was 200 µg/mL. For the same molecule, the “MIC in Combination” value ([5]; TP2-6 combined with meropenem) was 200 µg/mL, the MIC [6, 14] was 100 µg/mL and the “MIC in Combination” value ([6]; TP2-5 combined with meropenem) was 100 µg/mL. For the same molecule, the “MIC in Combination” value ([6]; TP2-6 combined with meropenem) was 50 µg/mL, the MIC [7, 14] was 50 µg/mL and the “MIC in Combination” value ([7]; TP2-5 combined with meropenem) was 50 µg/mL. The “MIC in Combination” value ([7]; TP2-6 combined with meropenem) was 25 µg/mL, the MIC [8, 14] was 200 µg/mL and the “MIC in Combination” value ([8]; TP2-5 combined with meropenem) was 200 µg/mL. For the same molecule, the “MIC in Combination” value ([8]; TP2-6 combined with meropenem) was 100 µg/mL, the MIC [9, 14] was 100 µg/mL and the “MIC in Combination” value ([9]; TP2-5 combined with meropenem) was 100 µg/mL. For the same molecule, the “MIC in Combination” value ([9]; TP2-6 combined with meropenem) was 100 µg/mL, the MIC [10, 14] was 100 µg/mL and the “MIC in Combination” value ([10]; TP2-5 combined with meropenem) was 50 µg/mL. For the same molecule, the “MIC in Combination” value ([10]; TP2-6 combined with meropenem, first printed pair of the cells (before the slash)) was 50 µg/mL, the “MIC in Combination” value ([10]; TP2-6 combined with meropenem, second printed pair of the cells (after the slash)) was 25 µg/mL and the MIC [11, 14] was 12.5 µg/mL. For the same molecule, the “MIC in Combination” value ([11]; TP2-5 combined with meropenem) was 12.5 µg/mL, the “MIC in Combination” value ([11]; TP2-6 combined with meropenem) was 1.56 µg/mL and the MIC [12, 14] was 50 µg/mL. For the same molecule, the “MIC in Combination” value ([12]; TP2-5 combined with meropenem) was 25 µg/mL, the “MIC in Combination” value ([12]; TP2-6 combined with meropenem) was 25 µg/mL and the MIC [13, 14] was 200 µg/mL. The “MIC in Combination” value ([13]; TP2-5 combined with meropenem) was 100 µg/mL and the “MIC in Combination” value ([13]; TP2-6 combined with meropenem) was 100 µg/mL.
